Where “and” joins values, the source holds several entries; their conditions need not be identical. Equal entries are not always repeated.
Legend:
Type in all cases: cell-based
[1] = target: T1, DRD3 (Homo sapiens, UniProt P35462); test: β-arrestin2 recruitment (Tango)
[2] = target: DRD2 (D2 long receptor) (Homo sapiens, UniProt P14416); test: β-arrestin2 recruitment (Tango), HTLA cells; settings: for response, concentration-response data point (replicates): Fig_S10a, drug alone
[3] = target: T1, DRD3; test: Gαi/o-mediated cAMP inhibition (GloSensor); settings: DRD3, cAMP inhibition
[4] = target: T2, 5HT1A (Homo sapiens, UniProt P08908); test: β-arrestin2 recruitment (Tango); settings: Fig_S10f, single replicates
T2 construct: expressed in transfected cells; host or cells: HTLA cells expressing TEV-fused β-arrestin2
T2 sequence (P08908 1-422): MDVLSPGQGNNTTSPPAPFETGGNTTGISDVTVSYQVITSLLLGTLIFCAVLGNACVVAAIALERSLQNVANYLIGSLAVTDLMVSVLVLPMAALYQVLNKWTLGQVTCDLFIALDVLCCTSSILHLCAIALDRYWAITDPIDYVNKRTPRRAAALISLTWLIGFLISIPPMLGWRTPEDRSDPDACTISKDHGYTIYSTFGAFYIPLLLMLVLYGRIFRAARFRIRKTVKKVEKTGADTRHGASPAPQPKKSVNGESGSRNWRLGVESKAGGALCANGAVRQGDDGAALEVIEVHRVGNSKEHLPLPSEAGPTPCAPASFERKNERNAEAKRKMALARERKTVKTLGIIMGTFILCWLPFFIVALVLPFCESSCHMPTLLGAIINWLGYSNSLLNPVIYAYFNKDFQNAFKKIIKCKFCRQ

T1 sequence (P35462 whole entry): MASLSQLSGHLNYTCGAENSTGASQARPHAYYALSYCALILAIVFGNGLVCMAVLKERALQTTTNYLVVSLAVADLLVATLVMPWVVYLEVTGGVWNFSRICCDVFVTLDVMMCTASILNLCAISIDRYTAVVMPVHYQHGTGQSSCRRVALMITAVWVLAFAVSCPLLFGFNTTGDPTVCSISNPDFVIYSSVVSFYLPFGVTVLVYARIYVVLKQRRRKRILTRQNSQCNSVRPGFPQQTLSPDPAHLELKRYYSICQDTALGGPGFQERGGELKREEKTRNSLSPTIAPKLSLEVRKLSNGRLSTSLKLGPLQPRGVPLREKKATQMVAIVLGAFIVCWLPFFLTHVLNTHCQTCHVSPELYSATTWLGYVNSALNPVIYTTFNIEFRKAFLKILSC
Chain of DRD2 (D2 long receptor) (P14416 whole entry): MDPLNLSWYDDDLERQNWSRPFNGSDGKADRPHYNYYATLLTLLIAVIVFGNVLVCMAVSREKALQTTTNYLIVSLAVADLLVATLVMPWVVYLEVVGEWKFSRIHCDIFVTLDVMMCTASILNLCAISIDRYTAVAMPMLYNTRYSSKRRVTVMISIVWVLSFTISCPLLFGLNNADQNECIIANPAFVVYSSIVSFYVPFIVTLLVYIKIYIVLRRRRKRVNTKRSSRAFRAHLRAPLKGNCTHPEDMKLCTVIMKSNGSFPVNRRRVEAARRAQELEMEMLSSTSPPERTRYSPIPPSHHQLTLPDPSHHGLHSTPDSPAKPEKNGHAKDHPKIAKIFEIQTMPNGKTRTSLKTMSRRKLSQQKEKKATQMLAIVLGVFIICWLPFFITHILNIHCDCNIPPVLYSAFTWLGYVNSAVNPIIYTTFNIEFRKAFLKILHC

SMILES: CCOc1cccc2cc([C@H](C)NCC3(O)CCCCC3)oc12 [O4SE6]
- β-arrestin2 recruitment response at DRD3 (source data, replicate values) ([1]; Log[Drug] -6.52): 8.082 and 5.965 and 11.0149 and 19.9759 and 10.9551 and 9.221 and 9.014 and 7.197 and 16.9834
- β-arrestin2 recruitment response at DRD3 (source data, replicate values) ([1]; Log[Drug] -7): 8.647 and 6.889 and 5.419 and 8.207 and 5.755 and 6.315 and 4.579 and 5.095 and 7.56
- β-arrestin2 recruitment response at DRD3 (source data, replicate values) ([1]; Log[Drug] -7.52): 4.34 and 0.6022 and 1.762 and 2.508 and 1.167 and 1.071 and 1.816 and 2.855 and 3.052
- β-arrestin2 recruitment response at DRD3 (source data, replicate values) ([1]; Log[Drug] -8): 0.7316 and 0.3304 and 1.058 and 0.6729 and 0.7789 and 1.51 and 1.953 and 1.946 and 0.2868
- β-arrestin2 recruitment response at DRD3 (source data, replicate values) ([1]; Log[Drug] -8.52): 1.063 and 0.9542 and 0.434 and 0.6781 and 0.1637 and 0.2619 and 0.09244 and 0.8182 and 0.08985
- β-arrestin2 recruitment response at DRD3 (source data, replicate values) ([1]; Log[Drug] -9): -0.1872 and 1.166 and 0.6488 and 0.05773 and 0.4739 and 2.133 and -0.01123 and 0.2998 and -0.1097
- β-arrestin2 recruitment response at DRD3 (source data, replicate values) ([1]; Log[Drug] -9.52): 0.6514 and 0.02761 and -0.07333 and 1.513 and -0.1516 and 0.7866 and 1.233 and 1.648 and 0.09503
- β-arrestin2 recruitment response at DRD3 (source data, replicate values) ([1]; Log[Drug] -10): 1.257 and -0.3865 and -0.07075 and 0.2387 and 0.7918 and -0.1413 and 0.6108 and 0.3983 and -0.4207
- β-arrestin2 recruitment response at DRD3 (source data, replicate values) ([1]; Log[Drug] -10.52): 3.755 and 0.333 and -0.07333 and 2.441 and 0.1379 and -0.03791 and 0.1961 and 1.7564 and 0.1754
- β-arrestin2 recruitment response at DRD3 (source data, replicate values) ([1]; Log[Drug] -11): 0.522 and -0.07333 and -0.1743 and 0.2309 and 5.954 and 1.288 and -0.4182 and -0.01901 and 1.549
- β-arrestin2 recruitment response at DRD3 (source data, replicate values) ([1]; Log[Drug] -11.52): 1.588 and -0.07592 and 0.1337 and 0.3757 and 0.0448 and -0.03791 and 0.4061 and 1.448 and -0.2186
- β-arrestin2 recruitment agonist activity ([2]; DRD2, Tango): selective DRD2 agonist
- EC50 ([2]; DRD2, β-arrestin2 recruitment (Tango), read-out: EC50 ± SEM): 1050 nM
- response, concentration-response data point (replicates) ([2]; Log[Drug] -5): 73.5777 and 57.7969 and 60.7943 and 65.7822 and 71.9755 and 71.4753 and 62.0106
- response, concentration-response data point (replicates) ([2]; Log[Drug] -5.52): 50.6787 and 47.7474 and 41.401 and 56.0167 and 52.8546 and 51.367 and 55.6817
- response, concentration-response data point (replicates) ([2]; Log[Drug] -6): 39.3966 and 41.1099 and 37.2084 and 41.7585 and 38.5021 and 38.079 and 42.2149
- response, concentration-response data point (replicates) ([2]; Log[Drug] -6.52): 17.548 and 17.9218 and 22.2395 and 30.2893 and 22.7451 and 19.4102 and 21.7916
- response, concentration-response data point (replicates) ([2]; Log[Drug] -7): 9.564 and 7.739 and 7.708 and 7.415 and 7.649 and 7.113 and 9.501
- response, concentration-response data point (replicates) ([2]; Log[Drug] -7.52): 5.75 and 5.841 and 5.282 and 5.619 and 6.782 and 5.749 and 5.8801
- response, concentration-response data point (replicates) ([2]; Log[Drug] -8): 5.434 and 5.45 and 5.389 and 5.042 and 5.329 and 5.148 and 5.345
- response, concentration-response data point (replicates) ([2]; Log[Drug] -8.52): 5.277 and 5.01 and 4.9419 and 4.98 and 5.0858 and 5.308 and 5.178
- response, concentration-response data point (replicates) ([2]; Log[Drug] -9): 5.4097 and 5.385 and 5.128 and 4.863 and 4.947 and 4.805 and 4.8829
- response, concentration-response data point (replicates) ([2]; Log[Drug] -9.52): 5.139 and 4.887
- response, concentration-response data point (replicates) ([2]; Log[Drug] -10): 5.431 and 4.786 and 4.659 and 4.856 and 4.756 and 4.79 and 4.8682
- response, concentration-response data point (replicates) ([2]; Log[Drug] -10.52): 5.022 and 4.798 and 4.776 and 4.763 and 4.86 and 4.945 and 4.841
- response, concentration-response data point (replicates) ([2]; Log[Drug] -11): 4.915 and 4.765 and 4.615 and 4.7302 and 4.774 and 4.749 and 4.971
- response, concentration-response data point (replicates) ([2]; Log[Drug] -11.52): 4.946 and 4.662 and 4.627 and 4.695 and 4.751 and 4.656 and 4.732
- response, concentration-response data point (replicates) ([2]; Log[Drug] -12): 4.887 and 4.582 and 4.674 and 4.754 and 4.726 and 4.751 and 4.811
- Emax ([2]; HTLA, read-out: Emax relative to quinpirole response, DRD2, Tango): 71.3%
- β-arrestin2 recruitment response at DRD2 (source data, replicate values) ([2]; Log[Drug] -6): 82.8973
- β-arrestin2 recruitment response at DRD2 (source data, replicate values) ([2]; Log[Drug] -6.52): 72.8482 and 85.473 and 74.6038 and 82.6009 and 103.942 and 82.378 and 70.1593 and 68.4699 and 74.397
- β-arrestin2 recruitment response at DRD2 (source data, replicate values) ([2]; Log[Drug] -7): 71.4846 and 69.3009 and 62.1089 and 68.8602 and 55.9009 and 59.7861 and 54.6819 and 54.8285 and 54.3284
- β-arrestin2 recruitment response at DRD2 (source data, replicate values) ([2]; Log[Drug] -7.52): 50.7715 and 50.9759 and 58.0792 and 57.6214 and 43.2407 and 45.9376 and 55.9749 and 62.7315 and 56.5853
- β-arrestin2 recruitment response at DRD2 (source data, replicate values) ([2]; Log[Drug] -8): 39.7841 and 36.3747 and 29.4664 and 31.1292 and 29.8397 and 30.2988 and 27.2382 and 26.622 and 26.0732
- β-arrestin2 recruitment response at DRD2 (source data, replicate values) ([2]; Log[Drug] -8.52): 13.2168 and 14.3867 and 13.161 and 13.9303 and 10.9069 and 10.856 and 10.5462 and 11.4912 and 11.2421
- β-arrestin2 recruitment response at DRD2 (source data, replicate values) ([2]; Log[Drug] -9): 7.123 and 6.617 and 6.837 and 5.043 and 6.064 and 6.895 and 5.588 and 6.122 and 5.826
- β-arrestin2 recruitment response at DRD2 (source data, replicate values) ([2]; Log[Drug] -9.52): 5.908 and 5.15 and 5.772 and 5.0023 and 4.872 and 4.927 and 5.017 and 5.057 and 5.0924
- β-arrestin2 recruitment response at DRD2 (source data, replicate values) ([2]; Log[Drug] -10): 5.347 and 5.121 and 5.289 and 4.982 and 4.774 and 4.763 and 4.918 and 4.901 and 4.8503
- β-arrestin2 recruitment response at DRD2 (source data, replicate values) ([2]; Log[Drug] -10.52): 5.092 and 5.033 and 5.133 and 4.671 and 4.683 and 4.718 and 4.817 and 4.868 and 4.747
- β-arrestin2 recruitment response at DRD2 (source data, replicate values) ([2]; Log[Drug] -11): 5.0524 and 5.024 and 4.843 and 4.786 and 4.868 and 4.603 and 4.715 and 4.851 and 5.108
- β-arrestin2 recruitment response at DRD2 (source data, replicate values) ([2]; Log[Drug] -11.52): 4.975 and 5.004 and 4.993 and 4.845 and 4.81 and 4.615 and 4.945 and 4.7318 and 4.6555
- EC50 ([3]; agonist, read-out: EC50 ± SEM): > 10 µM
- G protein agonist activity [3]: no detectable agonist activity
- β-arrestin2 recruitment response, agonist mode (normalized) ([4]; Log[Drug] -9.52): -0.8354 and -0.6725 and 0.6683 and 0.2383 and 1.852 and 0.7592 and 0.2273 and 0.7234 and 0.9859
- β-arrestin2 recruitment response, agonist mode (normalized) ([4]; Log[Drug] -10): 0.6642 and 0.6683 and -0.5096 and -0.1895 and -0.3206 and 1.295 and 0.9379 and 4.834 and 0.8483
- β-arrestin2 recruitment response, agonist mode (normalized) ([4]; Log[Drug] -10.52): 0.8312 and -0.848 and -0.5013 and 0.469 and 0.1267 and -0.3585 and 11.6165 and 0.685 and 0.3585
- β-arrestin2 recruitment response, agonist mode (normalized) ([4]; Log[Drug] -11): -0.188 and 0.8354 and -0.1713 and -0.4961 and -0.2339 and 0.4322 and 2.113 and 0.3457 and 0.4834
- β-arrestin2 recruitment response, agonist mode (normalized) ([4]; Log[Drug] -11.52): 1.3325 and -0.1754 and -0.6683 and -0.2719 and 3.032 and -0.4646 and -0.4129 and 1.767 and 1.504
- β-arrestin2 recruitment response, agonist mode (normalized) ([4]; Log[Drug] -12): 0.1671 and -0.9983 and -0.6683 and -0.2567 and -0.0639 and 2.424 and -0.7778 and 0.7554 and 0.3457
